The source of these data is PubChem BioAssay AID206 (DTP/NCI, 2004).

“And” between values parts separate entries of the source, which are not always exact repeats. Identical values can stand only once. Results filed as inconclusive are left out.

This experiment deals with nude mice, HT29 intrarenal xenograft, tumor weight T/C. Description: NCI In Vivo Anticancer Drug Screen. Data for tumor model HT29;CX-1 Human Adenocarcinoma (MER+) (intrarenal inoculation) in NU/NU Swiss (nude) mice. Conditions: endpoint: mean tumor weight change, higher = larger tumour. Put shortly: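 Mice with transplanted tumors are dosed with compound while controls get vehicle only. Survival or tumor burden is then assessed per group, and the treated value is expressed relative to control.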

Where [1] appears, read: dose: 150.0 mg/kg/injection, schedule: Q04DX004 (sc), vehicle: saline with Tween-80.
Where [2] appears, read: dose: 300.0 mg/kg/injection, schedule: Q04DX004 (sc), vehicle: saline with Tween-80.
[3] abbreviates: dose: 600.0 mg/kg/injection, schedule: Q04DX004 (sc), vehicle: saline with Tween-80.
Setting [4] is: dose: 50.0 mg/kg/injection, schedule: Q01DX010 (sc), vehicle: Klucel (hydroxypropylcellulose) (HPC).
Setting [5] is: dose: 100.0 mg/kg/injection, schedule: Q01DX010 (sc), vehicle: Klucel (hydroxypropylcellulose) (HPC).
Where [6] appears, read: dose: 12.5 mg/kg/injection, schedule: Q01DX010 (sc), vehicle: saline.
Where [7] appears, read: dose: 25.0 mg/kg/injection, schedule: Q01DX010 (sc), vehicle: saline.
The mark [8] stands for this setting: dose: 200.0 mg/kg/injection, schedule: Q04DX004 (sc), vehicle: Klucel (hydroxypropylcellulose) (HPC).
Setting [9] is: dose: 400.0 mg/kg/injection, schedule: Q04DX004 (sc), vehicle: Klucel (hydroxypropylcellulose) (HPC).
[10] abbreviates: dose: 800.0 mg/kg/injection, schedule: Q04DX004 (sc), vehicle: Klucel (hydroxypropylcellulose) (HPC).
[11] abbreviates: dose: 37.5 mg/kg/injection, schedule: Q04DX004 (sc), vehicle: saline with Tween-80.

Regarding `CC(C)CCCCCCCCCCCCC(=O)NCC(=O)NC1C(O)C(O)C(Nc2ncnc3nc[nH]c23)OC1C(O)CO` (stereo unspecified), the T/C is 85 % of control (dose: 0.75 mg/kg/injection, schedule: Q04DX004 (sc), vehicle: suspension in saline); 21 % of control and 24 % of control (dose: 0.8 mg/kg/injection, schedule: Q01DX010 (sc), vehicle: saline); 47 % of control (dose: 1.5 mg/kg/injection, schedule: Q04DX004 (sc), vehicle: suspension in saline); 10 % of control and 23 % of control (dose: 3.0 mg/kg/injection, schedule: Q04DX004 (sc), vehicle: suspension in saline); 15 % of control (dose: 6.0 mg/kg/injection, schedule: Q04DX004 (sc), vehicle: suspension in saline).
In the case of `C=CCNc1nc2c(s1)CCc1cc(OC)c(OC)cc1-2`, the T/C is 38 % of control under setting [1]; 114 % of control under setting [2]; 113 % of control under setting [3]; 80 % of control (dose: 1200.0 mg/kg/injection, schedule: Q04DX004 (sc), vehicle: saline with Tween-80).
On to `NC(C(=O)O)c1ccc(CBr)cc1` (stereo unspecified), for which the T/C runs as follows: (dose: 50.0 mg/kg/injection, schedule: Q04DX004 (sc), vehicle: acid diluted with saline) 76 % of control; (dose: 100.0 mg/kg/injection, schedule: Q04DX004 (sc), vehicle: acid diluted with saline) 70 % of control; (dose: 200.0 mg/kg/injection, schedule: Q04DX004 (sc), vehicle: acid diluted with saline) 65 % of control; (dose: 400.0 mg/kg/injection, schedule: Q04DX004 (sc), vehicle: acid diluted with saline) 52 % of control.
Take `C[N+](C)(C)c1cc2c(nn1)Nc1ccccc1S2`: the T/C reads like this: under setting [4], 25 % of control; under setting [5], 85 % of control.
For `Cc1cc(NCCCN(C)C)c2ccc3c(ccc4c(NCCCN(C)C)cc(C)nc43)c2n1`, where the note is “dose: 9.38 mg/kg/injection, schedule: Q04DX004 (sc), vehicle: saline with Tween-80”, the T/C was 53 % of control.
Regarding `COc1cccc2c1C(=O)c1c(O)c3c(c(O)c1C2=O)C[C@@](O)(C(=O)CO)C[C@@H]3OC1CC(N)C(OC)C(C)O1` (stereo partly specified), the T/C (dose: 3.13 mg/kg/injection, schedule: Q04DX004 (sc), vehicle: saline) was 207 % of control.
As for `C/C(=N\N=C(/[Se])N1CC2CCC(CC2)C1)c1ccccn1`, the T/C (dose: 6.25 mg/kg/injection, schedule: Q04DX004 (sc), vehicle: Klucel (hydroxypropylcellulose) (HPC)) is 60 % of control; the T/C (dose: 12.5 mg/kg/injection, schedule: Q04DX004 (sc), vehicle: Klucel (hydroxypropylcellulose) (HPC)) is 83 % of control; the T/C (dose: 25.0 mg/kg/injection, schedule: Q04DX004 (sc), vehicle: Klucel (hydroxypropylcellulose) (HPC)) was 81 % of control; the T/C (dose: 50.0 mg/kg/injection, schedule: Q04DX004 (sc), vehicle: Klucel (hydroxypropylcellulose) (HPC)) is 86 % of control.
On to `COc1ccc(-c2csc(=[N+]3CCCCC3)s2)cc1`, for which the T/C was 227 % of control (dose: 6.25 mg/kg/injection, schedule: Q04DX004 (sc), vehicle: water) and 118 % of control (dose: 12.5 mg/kg/injection, schedule: Q04DX004 (sc), vehicle: water).
In the case of `C1OC1C1CO1` (stereo unspecified), the T/C runs as follows: under setting [6], 164 % of control; under setting [7], 168 % of control.
As to `CC1(C)N=C(N)N=C(N)N1c1ccc(F)c(C(F)(F)F)c1`, the T/C was 103 % of control (dose: 3.12 mg/kg/injection, schedule: Q01DX010 (sc), vehicle: saline); 84 % of control (dose: 6.25 mg/kg/injection, schedule: Q01DX010 (sc), vehicle: saline); 49 % of control under setting [6]; 124 % of control under setting [7].
With `C1CC[N-]CC1.C1CC[N-]CC1.C1CC[N-]CC1.[Cl][Rh]([Cl])[Cl]`, the T/C by setting is: (dose: 150.0 mg/kg/injection, schedule: Q04DX004 (sc), vehicle: saline) 36 % of control; (dose: 300.0 mg/kg/injection, schedule: Q04DX004 (sc), vehicle: saline) 25 % of control.
As for `CC(Oc1ccccc1-c1ccccc1)C(=O)N(C)C` (stereo unspecified), the T/C is 115 % of control (dose: 200.0 mg/kg/injection, schedule: Q04DX004 (sc), vehicle: saline with Tween-80); 63 % of control (dose: 400.0 mg/kg/injection, schedule: Q04DX004 (sc), vehicle: saline with Tween-80); 89 % of control (dose: 800.0 mg/kg/injection, schedule: Q04DX004 (sc), vehicle: saline with Tween-80); 55 % of control (dose: 1600.0 mg/kg/injection, schedule: Q04DX004 (sc), vehicle: saline with Tween-80).
On to `OC(CCl)CN1CC[N+]2(CC1)CC[N+]1(CCN(CC(O)CCl)CC1)CC2` (stereo unspecified), for which the T/C was 245 % of control (dose: 32.0 mg/kg/injection, schedule: Q01DX010 (sc), vehicle: water); 59 % of control (dose: 64.0 mg/kg/injection, schedule: Q01DX010 (sc), vehicle: water); 108 % of control (dose: 128.0 mg/kg/injection, schedule: Q01DX010 (sc), vehicle: water); 35 % of control (dose: 256.0 mg/kg/injection, schedule: Q01DX010 (sc), vehicle: water).
`O=c1[nH]c(=O)c2nc(-c3cccnc3)cnc2[nH]1`: the T/C by setting is: (dose: 100.0 mg/kg/injection, schedule: Q04DX004 (sc), vehicle: Klucel (hydroxypropylcellulose) (HPC)) 68 % of control; under setting [8], 85 % of control; under setting [9], 102 % of control; under setting [10], 77 % of control.
For `C=C1C(=O)OCC2C(C(=O)O)=CC3C(C)C(C)=CC123` (stereo unspecified), the T/C runs as follows: (dose: 12.5 mg/kg/injection, schedule: Q01DX010 (sc), vehicle: Klucel (hydroxypropylcellulose) (HPC)) 71 % of control; (dose: 25.0 mg/kg/injection, schedule: Q01DX010 (sc), vehicle: Klucel (hydroxypropylcellulose) (HPC)) 94 % of control.
For `COc1cc([C@@H]2c3cc4c(c(O)c3C[C@H]3COC(=O)[C@@H]32)OCO4)cc(OC)c1OC`, the T/C runs as follows: (dose: 2.0 mg/kg/injection, schedule: Q01DX010 (sc), vehicle: saline) 46 % of control; (dose: 4.0 mg/kg/injection, schedule: Q01DX010 (sc), vehicle: saline) 58 % of control; (dose: 8.0 mg/kg/injection, schedule: Q01DX010 (sc), vehicle: saline) 25 % of control.
Consider `NC(=S)N/N=C/c1ccc(OC(=O)COc2ccc(Cl)cc2)cn1`, for which the T/C runs as follows: under setting [2], 103 % of control; under setting [3], 150 % of control.
For the compound `CC1=NNC(=O)C1CCO` (stereo unspecified), the T/C by setting is: under setting [8], 66 % of control; under setting [9], 44 % of control; under setting [10], 99 % of control; (dose: 1600.0 mg/kg/injection, schedule: Q04DX004 (sc), vehicle: Klucel (hydroxypropylcellulose) (HPC)) 63 % of control.
As to `CC[C@H](CC[C@@H](C)C1CC[C@H]2[C@@H]3CC=C4C[C@@H](OP(=O)(N5CC5)N5CC5)CC[C@]4(C)[C@H]3CC[C@]12C)C(C)C` (stereo partly specified), the T/C is 73 % of control (dose: 100.0 mg/kg/injection, schedule: Q01DX010 (sc), vehicle: saline with Tween-80) and 97 % of control (dose: 800.0 mg/kg/injection, schedule: Q01DX010 (sc), vehicle: saline with Tween-80).
As to `CCN(CC)Cc1cc2[nH]c3c4ccc(Cl)cc4ncc3c2cc1OC`, the T/C is, setting by setting: under setting [11], 187 % of control; under setting [1], 161 % of control; under setting [2], 94 % of control.
For `CS(=O)(=O)OCCN(CCOS(C)(=O)=O)c1ccc(C=Nc2ccc(-c3csc(COc4ccccc4)n3)cc2)cc1`, the T/C reads like this: under setting [4], 72 % of control; under setting [5], 44 % of control.
In the case of `O=C1C2CC=CCC2C(=O)N1SC(Cl)(Cl)Cl` (stereo unspecified), the T/C is 96 % of control (dose: 18.75 mg/kg/injection, schedule: Q04DX004 (sc), vehicle: saline with Tween-80); 88 % of control under setting [11]; 101 % of control under setting [2]; 71 % of control under setting [3].
For `CC(C)[NH-].CC(C)[NH-].O.O.[Cl][Pt+2][Cl]`, the T/C by setting is: (dose: 6.25 mg/kg/injection, schedule: Q01DX010 (sc), vehicle: dextrose) 77 % of control and 79 % of control; (dose: 12.5 mg/kg/injection, schedule: Q01DX010 (sc), vehicle: dextrose) 7 % of control and 23 % of control.
Turning to `CC(=Nc1ccccc1)C1=C(O)C(Cc2ccccc2)NC1=O` (stereo unspecified), the T/C is, setting by setting: (dose: 75.0 mg/kg/injection, schedule: Q04DX004 (sc), vehicle: saline with Tween-80) 66 % of control; under setting [1], 105 % of control; under setting [2], 43 % of control; under setting [3], 80 % of control.
